Source: patent publication US8614200B2, “Compounds, compositions and methods for treating ocular conditions” (Chimerix, Inc., priority 2009, dated 2013)
pEC50: −log10 of the molar value.

Legend:
Assay type in all cases: cell-based
CMV = assay: in vitro antiviral activity against CMV; settings: for pEC50: Human betaherpesvirus 5, CMV, in vitro
EBV = assay: in vitro antiviral activity against EBV
HHV-6 = assay: in vitro antiviral activity against HHV-6; settings: for pEC50: HHV-6, in vitro
HSV-1 = assay: in vitro antiviral activity against HSV-1; settings: CMX001 versus cidofovir EC50, HSV-1
VZV = assay: in vitro antiviral activity against VZV

Row | SMILES | Enhanced Activity (CMV; CMX001 versus cidofovir EC50, CMV) | pEC50 (CMV) | Enhanced Activity (EBV; CMX001 versus cidofovir EC50, EBV) | Enhanced Activity (HHV-6; CMX001 versus cidofovir EC50, HHV-6) | pEC50 (HHV-6) | Enhanced Activity (HSV-1) | Enhanced Activity (VZV; CMX001 versus cidofovir EC50, VZV) | pEC50 (EBV; human gammaherpesvirus 4, EBV, in vitro) | pEC50 (VZV; Human alphaherpesvirus 3, VZV, in vitro)
1 | CCCCCCCCCCCCCCCCOCCCOP(=O)(O)CO[C@H](CO)Cn1ccc(N)nc1=O [CMX001] | 400 | 9.00 | >2700 | 771 | 8.15 | 92 | 125 |  | 
2 | Nc1ccn(C[C@@H](CO)OCP(=O)(O)O)c(=O)n1 [Cidofovir, cidofovir, reference compound] |  | 6.40 |  |  | 5.27 |  |  | < 3.97 | 6.30
